In the NIST ThermoML archive (doi:10.1021/je0301489):
Several values for one entry are separate records, joined by “and”; a condition that tells them apart may be missing. Equal values may be shown once.

Assays:
[1] = refractive index (Na D-line) (dimensionless); settings: 101.33 kPa, Liquid
[2] = 101.33 kPa, Liquid
[3] = refractive index (Na D-line) (dimensionless); xn = mol fraction of the nth substance listed; settings: 101.33 kPa, Liquid
[4] = xn = mol fraction of the nth substance listed; settings: 101.33 kPa, Liquid

C1COCCO1 [1,4-dioxane]
Settings	mass density, 298.15 K [kg/m3]	mass density, 303.15 K [kg/m3]	mass density, 308.15 K [kg/m3]	refractive index, 298.15 K	refractive index, 303.15 K	refractive index, 308.15 K	speed of sound, 298.15 K	viscosity, 298.15 K	viscosity, 303.15 K [mPa·s]	viscosity, 308.15 K [mPa·s]
[1]	–	–	–	1.4201 and 1.4202	1.417	1.4144	–	–	–	–
[2]	1027.6	1021.9	1016.2	–	–	–	1347 m/s and 1348 m/s	1.166 mPa·s and 1.167 mPa·s	1.069	0.984

CCOC(=O)C(=O)OCC [diethyl ethanedioate]
Settings	mass density, 298.15 K [kg/m3]	mass density, 303.15 K [kg/m3]	mass density, 308.15 K [kg/m3]	refractive index, 298.15 K	refractive index, 303.15 K	refractive index, 308.15 K	speed of sound, 298.15 K [m/s]	viscosity, 298.15 K [mPa·s]	viscosity, 303.15 K [mPa·s]	viscosity, 308.15 K [mPa·s]
[1]	–	–	–	1.4084	1.406	1.4034	–	–	–	–
[2]	1072.9	1066.2	1060.8	–	–	–	1276	1.759	1.581	1.437

CCOC(=O)c1ccccc1C(=O)OCC [diethyl phthalate]
Settings	mass density, 298.15 K [kg/m3]	mass density, 303.15 K [kg/m3]	mass density, 308.15 K [kg/m3]	refractive index, 298.15 K	refractive index, 303.15 K	refractive index, 308.15 K	speed of sound, 298.15 K [m/s]	viscosity, 298.15 K [mPa·s]	viscosity, 303.15 K [mPa·s]	viscosity, 308.15 K [mPa·s]
[1]	–	–	–	1.5001	1.4978	1.4958	–	–	–	–
[2]	1115.1	1110.2	1105.6	–	–	–	1446	7.926	6.129	4.893

CCCCCCCCOC(=O)c1ccccc1C(=O)OCCCCCCCC [dioctyl 1,2-benzenedicarboxylate]
Settings	mass density, 298.15 K [kg/m3]	mass density, 303.15 K [kg/m3]	mass density, 308.15 K [kg/m3]	refractive index, 298.15 K	refractive index, 303.15 K	refractive index, 308.15 K	speed of sound, 298.15 K [m/s]	viscosity, 298.15 K [mPa·s]	viscosity, 303.15 K [mPa·s]	viscosity, 308.15 K [mPa·s]
[1]	–	–	–	1.485	1.4831	1.481	–	–	–	–
[2]	980.7	977.1	973.1	–	–	–	1421	43.03	30.18	21.88

CCOC(=O)CC(C)=O [ethyl 3-oxobutanoate]
Settings	mass density, 298.15 K [kg/m3]	mass density, 303.15 K [kg/m3]	mass density, 308.15 K [kg/m3]	refractive index, 298.15 K	refractive index, 303.15 K	refractive index, 308.15 K	speed of sound, 298.15 K [m/s]	viscosity, 298.15 K [mPa·s]	viscosity, 303.15 K [mPa·s]	viscosity, 308.15 K [mPa·s]
[1]	–	–	–	1.4166	1.4145	1.412	–	–	–	–
[2]	1020.9	1014.9	1010.2	–	–	–	1331	1.48	1.339	1.239

CCOC(=O)CC(C)=O [ethyl 3-oxobutanoate] + C1COCCO1
Settings	mass density, 298.15 K [kg/m3]	mass density, 303.15 K [kg/m3]	mass density, 308.15 K [kg/m3]	refractive index, 298.15 K	refractive index, 303.15 K	refractive index, 308.15 K	speed of sound, 298.15 K [m/s]	viscosity, 298.15 K [mPa·s]	viscosity, 303.15 K [mPa·s]	viscosity, 308.15 K [mPa·s]
[3], x2 = 0	–	–	–	1.4166	1.4145	1.412	–	–	–	–
[3], x2 = 0.1134	–	–	–	1.417	1.4146	1.4122	–	–	–	–
[3], x2 = 0.2058	–	–	–	1.4171	1.4148	1.4124	–	–	–	–
[3], x2 = 0.3054	–	–	–	1.4174	1.415	1.4126	–	–	–	–
[3], x2 = 0.4008	–	–	–	1.4176	1.4154	1.413	–	–	–	–
[3], x2 = 0.4986	–	–	–	1.4178	1.4155	1.413	–	–	–	–
[3], x2 = 0.5955	–	–	–	1.418	1.416	1.4132	–	–	–	–
[3], x2 = 0.6972	–	–	–	1.4186	1.4162	1.4137	–	–	–	–
[3], x2 = 0.7971	–	–	–	1.4192	1.4166	1.414	–	–	–	–
[3], x2 = 0.8964	–	–	–	1.4195	1.4169	1.4144	–	–	–	–
[4], x2 = 0	1020.9	1014.9	1010.2	–	–	–	1331	1.48	1.339	1.239
[4], x2 = 0.1134	1021.5	1016	1010.6	–	–	–	1335	1.425	1.311	1.197
[4], x2 = 0.2058	1022.1	1016.5	1011	–	–	–	1338	1.386	1.276	1.165
[4], x2 = 0.3054	1022.7	1017.1	1011.4	–	–	–	1340	1.346	1.24	1.133
[4], x2 = 0.4008	1023.3	1017.6	1011.9	–	–	–	1342	1.309	1.205	1.102
[4], x2 = 0.4986	1024	1018.2	1012.4	–	–	–	1344	1.272	1.172	1.072
[4], x2 = 0.5955	1024.7	1018.8	1013	–	–	–	1345	1.237	1.14	1.044
[4], x2 = 0.6972	1025.4	1019.5	1013.7	–	–	–	1346	1.208	1.115	1.021
[4], x2 = 0.7971	1026.1	1020.3	1014.4	–	–	–	1346	1.182	1.091	1
[4], x2 = 0.8964	1026.8	1021	1015.2	–	–	–	1347	1.166	1.077	0.988
